Test systems include UO-31 renal; M19-MEL melanoma; XF 498 CNS; DMS 114 small cell lung; TK-10 renal; HOP-18 NSCLC; MDA-MB-435; T-47D breast; BT-549 breast; HS 578T breast.
What all share (assay): growth of human tumour cells (NCI), 48 h

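Cultured in 96-well plates, cells were exposed to test compound for 48 hours across five concentrations. At the GI50, growth is halved. TGI is the concentration that stops growth completely.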 Bounds are passed on as bounds.

For the molecule `Cc1cc(C)c(C(=O)O)c(SSc2cc(C)cc(C)c2C(=O)O)c1`, the TGI in the assay with UO-31 renal, with M19-MEL melanoma, in the assay on XF 498 CNS, in the assay on DMS 114 small cell lung and in the assay with TK-10 renal was over 100 µM in each case.

As for `COC(=O)C(CC(=O)Nc1ccc(Cl)c(Cl)c1)C(=O)C(=O)Nc1ccc(Cl)c(Cl)c1` (configuration not stated), the TGI in the assay on UO-31 renal, in the assay on HOP-18 NSCLC, in the assay with M19-MEL melanoma, in the assay on DMS 114 small cell lung and in the assay on TK-10 renal was over 100 µM each time.

As for `CCOc1ccc(NCC2CC/C(=C\c3ccccc3OC)C2=O)cc1` (configuration not stated), the TGI in the assay with UO-31 renal is 26.2 µM; in the assay on HOP-18 NSCLC, 28.8 µM; in the assay with M19-MEL melanoma, 26.3 µM; in the assay with DMS 114 small cell lung, 28.2 µM; with TK-10 renal, 26.7 µM.

Consider `COC(=O)/C(C#N)=C(\N)C(Cl)(Cl)Cl`, for which the TGI in the assay on UO-31 renal was determined as 86.6 µM; in the assay on M19-MEL melanoma, 6.35 µM; with XF 498 CNS it was 4.36 µM; in the assay on DMS 114 small cell lung, 11.1 µM; in the assay with TK-10 renal, 7.55 µM.

For the molecule `COc1cc2c(cc1OC)C1Cc3ccc(OC)c(OC)c3C[N+]1([O-])CC2` (configuration not stated), the TGI in the assay with UO-31 renal, with XF 498 CNS and with TK-10 renal was over 100 µM in each case.

As for `CCOC(=O)C1=C(C)N(NC(N)=O)C2(N)N(NC(N)=O)C(C)=C(C(=O)OCC)C12C(=O)OCC` (configuration not stated), the TGI in the assay with UO-31 renal, in the assay on M19-MEL melanoma, in the assay with XF 498 CNS and in the assay with DMS 114 small cell lung was over 100 µM each time.

With `CC1CC(C)C2OC2(C)C[C@H](C)C(=O)NC(C)C(=O)N(C)[C@H](Cc2c(Br)[nH]c3ccccc23)C(=O)N[C@@H](c2ccc(O)cc2)CC(=O)O1` (some centres not stated), the TGI worked out at 27.3 µM in the assay on UO-31 renal, 4.31 µM with XF 498 CNS, 2.63 µM with DMS 114 small cell lung and 5.44 µM in the assay on TK-10 renal.

For the molecule `Cc1nc(N)nc(N)c1CCCc1ccccc1`, the TGI with UO-31 renal, with M19-MEL melanoma, with XF 498 CNS, in the assay with DMS 114 small cell lung and in the assay with TK-10 renal was over 100 µM each time.

On to `C/C(CC(=O)Nc1ccccc1C)=N/NS(=O)(=O)c1ccc(C)cc1`, for which the TGI with UO-31 renal, with M19-MEL melanoma, in the assay with XF 498 CNS and with TK-10 renal was over 100 µM throughout.

As to `COc1cc(C(C)c2cc3c(cc2OCCNC(=O)COc2cc4c(cc2C(C)c2cc(OC)c(OC)c(OC)c2)OCO4)OCO3)cc(OC)c1OC` (configuration not stated), the TGI in the assay on UO-31 renal, with M19-MEL melanoma, in the assay with DMS 114 small cell lung and with TK-10 renal was over 100 µM in each case.

Consider `O=S(=O)(N=NC=C1c2ccccc2N(O)c2ccccc21)c1ccc(Cl)cc1`, for which the TGI with UO-31 renal, in the assay with HOP-18 NSCLC, in the assay on M19-MEL melanoma, in the assay on DMS 114 small cell lung and in the assay with TK-10 renal was over 100 µM in each case.

For `Cc1nc(/C=C2\C(=O)C=Cc3ccccc32)c(O)o1`, the TGI in the assay with UO-31 renal, in the assay with HOP-18 NSCLC, with M19-MEL melanoma and with DMS 114 small cell lung was over 100 µM throughout.

On to `Cc1ccc2c(c1)C(=O)c1c-2c(OCCCN(C)C)nc2ccccc12`, for which the GI50 in the assay on MDA-MB-435 was 1.54 µM; in the assay on UO-31 renal it was 1.13 µM; with T-47D breast, 7.95 µM; in the assay on BT-549 breast, 6.02 µM; with TK-10 renal, 7.9 µM; in the assay with HS 578T breast, 4.24 µM. In addition, the TGI was 2.97 µM with MDA-MB-435; 8.26 µM in the assay on UO-31 renal; 26 µM with T-47D breast; 20.2 µM in the assay on BT-549 breast; 23.3 µM with TK-10 renal; 19.8 µM with HS 578T breast.

As for `O=C(C#Cc1ccccc1)C1=Cc2ccccc2OC1`, the TGI with MDA-MB-435 is 12.5 µM; in the assay with UO-31 renal it was 5.34 µM; in the assay with T-47D breast, over 61.1 µM; in the assay on BT-549 breast, 5.16 µM; with TK-10 renal, 3.58 µM; in the assay with HS 578T breast it was 23.8 µM.

As to `O=C1C=Cc2c1ccc1ccccc21`, the GI50 with MDA-MB-435 was 14.9 µM; with UO-31 renal, 26.7 µM; in the assay with T-47D breast it was 37.9 µM; in the assay on BT-549 breast, 31.4 µM; in the assay on TK-10 renal, 15.9 µM; in the assay with HS 578T breast it was 18.4 µM. Also, the TGI was 42.9 µM in the assay on MDA-MB-435; over 100 µM in the assay with UO-31 renal; over 100 µM with T-47D breast; 89.9 µM with BT-549 breast; 54.9 µM with TK-10 renal; 54.6 µM in the assay on HS 578T breast.

For `C=CCN1/C(=C2\SC(=S)N(c3ccc(C)cc3)C2=O)Sc2c1ncn(C)c2=O`, the TGI with UO-31 renal, with M19-MEL melanoma, with XF 498 CNS, in the assay on DMS 114 small cell lung and with TK-10 renal was over 100 µM each time.

For the molecule `Nc1nc2cc(CC[C@H]3C[C@@H](n4ccc5c(N)ncnc54)[C@H](O)[C@@H]3O)ccc2cc1Br`, the GI50 in the assay with MDA-MB-435 was 4.34 µM; in the assay on UO-31 renal, 2.92 µM; in the assay with T-47D breast it was 0.785 µM; with BT-549 breast it was 2.41 µM; with TK-10 renal, 12.2 µM; with HS 578T breast, 14.1 µM. Besides, the TGI stood at 18.4 µM with MDA-MB-435; 18 µM with UO-31 renal; 27.2 µM in the assay on T-47D breast; 16 µM with BT-549 breast; 26.3 µM with TK-10 renal; 36.8 µM with HS 578T breast.

For `Cc1ccc(S(=O)(=O)C2=c3nc4ccccc4cc3=C3C(=O)c4ccccc4C(=O)C32)cc1` (configuration not stated), the TGI in the assay with UO-31 renal, in the assay with M19-MEL melanoma, in the assay on XF 498 CNS, in the assay with DMS 114 small cell lung and in the assay with TK-10 renal was over 100 µM each time.

Consider `O=C1C(=O)c2ccccc2C(O)=C1CCCc1ccc(C2CCCCC2)cc1`, for which the GI50 with MDA-MB-435 is 3.64 µM; with UO-31 renal it was 5 µM; in the assay on T-47D breast, 3.2 µM; in the assay on BT-549 breast it was 3.19 µM; in the assay on TK-10 renal, 23.4 µM; in the assay on HS 578T breast, 8.59 µM. Also, the TGI was 22.6 µM in the assay with MDA-MB-435; 23.2 µM with UO-31 renal; 35.7 µM in the assay with T-47D breast; 39.3 µM in the assay with BT-549 breast; over 100 µM in the assay with TK-10 renal; 56.9 µM in the assay on HS 578T breast.

(Values after PubChem BioAssay (NCI).)
